In patent US20170355705A1 (GlaxoSmithKline Intellectual Property (No.2) Limited, priority 2014, published 2017):
Like-named read-outs stand apart in the source and are kept apart here.

Target: T1, SIRT1 (Homo sapiens, UniProt Q96EB6)
T1 sequence (Q96EB6 1-747): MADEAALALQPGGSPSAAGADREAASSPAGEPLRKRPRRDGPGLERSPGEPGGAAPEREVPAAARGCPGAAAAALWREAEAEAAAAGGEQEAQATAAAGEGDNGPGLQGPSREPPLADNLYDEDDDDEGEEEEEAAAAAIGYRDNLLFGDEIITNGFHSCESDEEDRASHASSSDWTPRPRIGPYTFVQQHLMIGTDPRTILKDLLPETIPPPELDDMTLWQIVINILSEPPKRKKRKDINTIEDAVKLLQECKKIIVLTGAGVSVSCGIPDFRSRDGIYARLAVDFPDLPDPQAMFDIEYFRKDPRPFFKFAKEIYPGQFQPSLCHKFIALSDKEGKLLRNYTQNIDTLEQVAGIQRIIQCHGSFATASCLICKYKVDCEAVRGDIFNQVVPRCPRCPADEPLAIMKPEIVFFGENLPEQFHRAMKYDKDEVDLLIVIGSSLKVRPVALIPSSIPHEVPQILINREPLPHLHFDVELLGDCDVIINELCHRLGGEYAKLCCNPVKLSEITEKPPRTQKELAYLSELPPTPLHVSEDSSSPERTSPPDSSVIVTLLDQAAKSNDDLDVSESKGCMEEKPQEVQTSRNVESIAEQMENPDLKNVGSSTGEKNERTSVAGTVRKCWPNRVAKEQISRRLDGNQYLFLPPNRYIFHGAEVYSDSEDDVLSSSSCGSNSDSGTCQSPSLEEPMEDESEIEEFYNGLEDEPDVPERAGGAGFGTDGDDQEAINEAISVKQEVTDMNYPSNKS
Assay: Trp mass spectrometry assay of SIRT1 activity (EC1.5, percent maximum activation)
Assay type: biochemical
Text: Mass spectrometry based assays were used to identify modulators of SIRT1 activity. […] The peptide was labeled with the fluorophore 5TMR (excitation 540 nm/emission 580 nm) at the C-terminus. The sequence of the peptide substrate was based on p53 with several modifications. In addition, the methionine residue naturally present in the sequence was replaced with the norleucine because the methionine may be susceptible to oxidation during synthesis and purification.
The Trp mass spectrometry assay was conducted as follows. […] The SIRT1 protein was obtained by cloning the SirT1 gene into a T7-promoter containing vector, which was then expressed in BL21(DE3) bacterial cells and purified as described in further detail below. Test compound was added at varying concentrations to this reaction mixture and the resulting reactions were monitored. After the 25 minute incubation with SIRT1, 10 μL of 10% formic acid was added to stop the reaction. The resulting reactions were sealed and frozen for later mass spec analysis. The relative SIRT1 activity was then determined by measuring the amount of O-acetyl-ADP-ribose (OAADPR) formed (or, alternatively, the amount of deacetylated Trp peptide generated) by the NAD-dependent sirtuin deacetylation reaction in the presence of varying concentrations of the test compound versus control reactions lacking the test compound. The degree to which the test agent activated deacetylation by SIRT1 was expressed as EC1.5 (i.e., the concentration of compound required to increase SIRT1 activity by 50% over the control lacking test compound), and Percent Maximum Activation (i.e., the maximum activity relative to control (100%) obtained for the test compound).
This time point was the same as that used for test compounds and, within the linear range, the endpoint represents a change in velocity.
For the above assay, SIRT1 protein was expressed and purified as follows. The SirT1 gene was cloned into a T7-promoter containing vector and transformed into BL21(DE3). The protein was expressed by induction with 1 mM IPTG as an N-terminal His-tag fusion protein at 18° C. overnight and harvested at 30,000×g. Cells were lysed with lysozyme in lysis buffer (50 mM Tris-HCl, 2 mM Tris[2-carboxyethyl]phosphine (TCEP), 10 μM ZnCl2, 200 mM NaCl) and further treated with sonication for 10 min for complete lysis. The protein was purified over a Ni-NTA column (Amersham) and fractions containing pure protein were pooled, concentrated and run over a sizing column (Sephadex S200 26/60 global). The peak containing soluble protein was collected and run on an Ion-exchange column (MonoQ). Gradient elution (200 mM-500 mM NaCl) yielded pure protein. This protein was concentrated and dialyzed against dialysis buffer (20 mM Tris-HCl, 2 mM TCEP) overnight. The protein was aliquoted and frozen at −80° C. until further use.
“NT” means not tested; “ND” means not determinable.

[1] = Trp mass spectrometry assay, EC1.5 = concentration giving 150% activation of SIRT1
[2] = Trp mass spectrometry assay, percent maximum activation of SIRT1
[3] = Trp mass spectrometry assay, 0.5 μM peptide substrate, 120 μM βNAD+, 10 nM SIRT1, 25 minutes at 25° C.

Compound	TRP Activity (EC1.5) [1]	TRP MAX RESP (percent maximum fold activation) [2]	TRP Activity (EC1.5, concentration of test compound that results in 150% activation of SIRT1) [3]	TRP MAX RESP (percent maximum fold activation) [3]	other results
CCc1cc(-c2ccc3c(n2)N(C(=O)Nc2cnccn2)[C@H]2CCN3C2)ccn1 [Example 139, (4S)-7-(2-ethylpyridin-4-yl)-N-(pyrazin-2-yl)-3,4-dihydro-1,4-methanopyrido[2,3-b][1,4]diazepine-5(2H)-carboxamide]	A (EC1.5<1 μM)	A (Fold activation ≧150%)	–	–	–
O=C(O)c1cc(-c2ccc3c(n2)N(C(=O)Nc2cnccn2)[C@H]2CCN3C2)ccn1 [Example 177, 4-((4S)-5-(pyrazin-2-ylcarbamoyl)-2,3,4,5-tetrahydro-1,4-methanopyrido[2,3-b][1,4]diazepin-7-yl)picolinic acid]	C (EC1.5>25 μM)	B (Fold Activation <150%)	–	–	–
Cc1cc(-c2nc3c(cc2Cl)N2CC[C@@H](C2)N3C(=O)Nc2cc(OC[C@H](O)CO)ncn2)ccn1 [Example 95, (4S)-8-chloro-N-(6-((R)-2,3-dihydroxypropoxy)pyrimidin-4-yl)-7-(2-methylpyridin-4-yl)-3,4-dihydro-1,4-methanopyrido[2,3-b][1,4]diazepine-5(2H)-carboxamide]	C (EC1.5>25 μM)	B (Fold Activation <150%)	–	–	–
Cc1cc(-c2ccc3c(n2)N(C(=O)Nc2cnccn2)[C@H]2CCN3C2)c(C)cn1 [Example 159, (4S)-7-(2,5-dimethylpyridin-4-yl)-N-(pyrazin-2-yl)-3,4-dihydro-1,4-methanopyrido[2,3-b][1,4]diazepine-5(2H)-carboxamide]	B (EC1.5 1-25 μM)	A (Fold activation ≧150%)	–	–	–
Cc1ccc(-c2ccc3c(n2)N(C(=O)Nc2cncc(OC[C@@H](O)CO)n2)[C@H]2CCN3C2)cn1 [Example 205, (4S)-N-(6-((S)-2,3-dihydroxypropoxy)pyrazin-2-yl)-7-(6-methylpyridin-3-yl)-3,4-dihydro-1,4-methanopyrido[2,3-b][1,4]diazepine-5(2H)-carboxamide]	–	–	B (EC1.5 1-25 μM)	A (Fold activation ≧150%)	–
O=C(Nc1cnc(OC[C@@H](O)CO)nc1)N1c2nc(-c3cccc(C(F)(F)F)c3)c(Cl)cc2N2CC[C@H]1C2 [Example 80, (4S)-8-chloro-N-(2-((S)-2,3-dihydroxypropoxy)pyrimidin-5-yl)-7-(3-(trifluoromethyl)phenyl)-3,4-dihydro-1,4-methanopyrido[2,3-b][1,4]diazepine-5(2H)-carboxamide]	A (EC1.5<1 μM)	A (Fold activation ≧150%)	–	–	–
O=C(Nc1cncc(OC[C@H](O)CO)c1)N1c2nc(-c3cccc(C(F)(F)F)c3)c(Cl)cc2N2CC[C@H]1C2 [Example 23, (4S)-8-chloro-N-(5-((R)-2,3-dihydroxypropoxy)pyridin-3-yl)-7-(3-(trifluoromethyl)phenyl)-3,4-dihydro-1,4-methanopyrido[2,3-b][1,4]diazepine-5(2H)-carboxamide]	A (EC1.5<1 μM)	A (Fold activation ≧150%)	–	–	–
Cc1ccc(-c2nc3c(cc2F)N2CC[C@@H](C2)N3C(=O)Nc2cccnc2)cn1 [Example 7, (4S)-8-fluoro-7-(6-methylpyridin-3-yl)-N-(pyridin-3-yl)-3,4-dihydro-1,4-methanopyrido[2,3-b][1,4]diazepine-5(2H)-carboxamide]	–	–	–	–	TRP Activity (EC1.5): B (key: A: EC1.5<1 μM; B: EC1.5 1-25 μM; EC1.5>25 μM); TRP MAX RESP (percent maximum fold activation): A (key: A: Fold activation ≧150%; B: Fold Activation <150%)
O=C(Nc1ncc(OC[C@H](O)CO)cn1)N1c2nc(-c3cccc(C(F)(F)F)c3)c(Cl)cc2N2CC[C@H]1C2 [Example 82, (4S)-8-chloro-N-(5-((R)-2,3-dihydroxypropoxy)pyrimidin-2-yl)-7-(3-(trifluoromethyl)phenyl)-3,4-dihydro-1,4-methanopyrido[2,3-b][1,4]diazepine-5(2H)-carboxamide]	B (EC1.5 1-25 μM)	A (Fold activation ≧150%)	–	–	–

The next lines start with results.

TRP Activity (EC1.5) [1]	TRP MAX RESP (percent maximum fold activation) [2]	TRP Activity (EC1.5, concentration of test compound that results in 150% activation of SIRT1) [3]	TRP MAX RESP (percent maximum fold activation) [3]	Compound	other results
–	–	B (EC1.5 1-25 μM)	A (Fold activation ≧150%)	Cc1cc(NC(=O)N2c3nc(-c4ccnc(C)c4)ccc3N3CC[C@H]2C3)ccn1 [Example 235, (4S)-N-7-bis(2-methylpyridin-4-yl)-3,4-dihydro-1,4-methanopyrido[2,3-b][1,4]diazepine-5(2H)-carboxamide]	–
–	–	B (EC1.5 1-25 μM)	A (Fold activation ≧150%)	O=C(Nc1cnccn1)N1c2nc(-c3ccc(OC(F)F)nc3)ccc2N2CC[C@H]1C2 [Example 226, (4S)-7-(6-(difluoromethoxy)pyridin-3-yl)-N-(pyrazin-2-yl)-3,4-dihydro-1,4-methanopyrido[2,3-b][1,4]diazepine-5(2H)-carboxamide]	–
–	–	A (EC1.5<1 μM)	A (Fold activation ≧150%)	Cc1cc(-c2ccc3c(n2)N(C(=O)Nc2cc(N4C[C@@H](C)O[C@@H](C)C4)ccn2)[C@H]2CCN3C2)ccn1 [Example 357, (4S)-N-(4-((2S,6R)-2,6-dimethylmorpholino)pyridin-2-yl)-7-(2-methylpyridin-4-yl)-3,4-dihydro-1,4-methanopyrido[2,3-b][1,4]diazepine-5(2H)-carboxamide]	–
–	–	B (EC1.5 1-25 μM)	A (Fold activation ≧150%)	O=C(Nc1cnccn1)N1c2nc(-c3ccnc(CO)c3)ccc2N2CC[C@H]1C2 [Example 218, (4S)-7-(2-(Hydroxymethyl)pyridin-4-yl)-N-(pyrazin-2-yl)-3,4-dihydro-1,4 methanopyrido[2,3-b][1,4]diazepine-5(2H)-carboxamide]	–
–	–	–	A (Fold activation ≧150%)	Cc1cc(-c2ccc3c(n2)N(C(=O)Nc2nccc(-c4cnc(C)o4)n2)[C@H]2CCN3C2)ccn1 [Example 353]	–
–	–	–	A (Fold activation ≧150%)	O=C(Nc1cncc(OCCCO)n1)N1c2nc(-c3cccc(C(F)(F)F)c3)ccc2N2CC[C@H]1C2 [Example 319]	–
–	–	B (EC1.5 1-25 μM)	A (Fold activation ≧150%)	O=C(Nc1ccnc(OCC(O)CO)c1)N1c2nc(-c3cnn(CC(F)(F)F)c3)c(Cl)cc2N2CC[C@H]1C2 (stereo in doubt) [Example 371, (4S)-8-chloro-N-(2-((R)-2,3-dihydroxypropoxy)pyridin-4-yl)-7-(1-(2,2,2-trifluoroethyl)-1H-pyrazol-4-yl)-3,4-dihydro-1,4-methanopyrido[2,3-b][1,4]diazepine-5(2H)-carboxamide]	–
